Data published in the supplement of paper PMC10307832.

Assays:
Test in all cases: relative viability (nuclei count vs DMSO), 5 days (fraction); higher = more cells survive
[1] = test system: ChaGo-K-1
In short: (§1)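 After 5 days of treatment, lung cancer cells in 1536-well plates were fixed and stained in a single step (final 0.05% Triton X-100, 1% formaldehyde, 1 ug/ml Hoechst) and their nuclei counted on 4× images. Treatment had been applied by pin tool the day after seeding as one drug alone or as a fixed anchor-drug dose with five library-drug doses (not always all listed) in √10 steps. Relative viability is the nuclei count of treated wells divided by that of vehicle wells, and values are medians of duplicate plates.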

[2] = test system: NCI-H2126
In short: as §1

[3] = test system: NCI-H2347
In short: as §1

[4] = test system: NCI-H2170
In short: as §1

[5] = test system: NCI-H1793
In short: as §1

[6] = test system: LOU-NH91
In short: as §1

[7] = test system: LCLC-103H
In short: as §1

[8] = test system: HOP-62
In short: as §1

[9] = test system: NCI-H520
In short: as §1

[10] = test system: NCI-H1437
In short: as §1

[11] = test system: NCI-H441
In short: as §1

[12] = test system: NCI-H2023
In short: as §1

[13] = test system: NCI-H650
In short: as §1

[14] = test system: NCI-H23
In short: as §1

[15] = test system: NCI-H647
In short: as §1

[16] = test system: NCI-H727
In short: as §1

[17] = test system: SW 1573
In short: as §1

[18] = test system: NCI-H460
In short: as §1

[19] = test system: EMC-BAC-2
In short: as §1

[20] = test system: NCI-H2405
In short: as §1

[21] = test system: EPLC-272H
In short: as §1

[22] = test system: NCI-H2009
In short: as §1

Cc1cnc(-c2cnc(NCCNc3ccc(C#N)cn3)nc2-c2ccc(Cl)cc2Cl)[nH]1 + Cc1nc(Nc2ncc(C(=O)Nc3c(C)cccc3Cl)s2)cc(N2CCN(CCO)CC2)n1 [Dasatinib] (partner 0.075 µM)
relative viability ([1]; first compound 0.08 µM): 0.607 | relative viability ([1]; first compound 0.253 µM): 0.462 | relative viability ([1]; first compound 0.8 µM): 0.512 | relative viability ([1]; first compound 2.53 µM): 0.515 | relative viability ([2]; first compound 0.08 µM): 0.686 | relative viability ([2]; first compound 0.253 µM): 0.54 | relative viability ([2]; first compound 0.8 µM): 0.604 | relative viability ([2]; first compound 2.53 µM): 0.529 | relative viability ([3]; first compound 0.08 µM): 0.279 | relative viability ([3]; first compound 0.253 µM): 0.309 | relative viability ([3]; first compound 0.8 µM): 0.283 | relative viability ([3]; first compound 2.53 µM): 0.333 | relative viability ([4]; first compound 0.08 µM): 0.556 | relative viability ([4]; first compound 0.253 µM): 0.345 | relative viability ([4]; first compound 0.8 µM): 0.576 | relative viability ([4]; first compound 2.53 µM): 0.487 | relative viability ([5]; first compound 0.08 µM): 0.384 | relative viability ([5]; first compound 0.253 µM): 0.365 | relative viability ([5]; first compound 0.8 µM): 0.411 | relative viability ([5]; first compound 2.53 µM): 0.468 | relative viability ([6]; first compound 0.08 µM): 0.562 | relative viability ([6]; first compound 0.253 µM): 0.558 | relative viability ([6]; first compound 0.8 µM): 0.55 | relative viability ([6]; first compound 2.53 µM): 0.514 | relative viability ([7]; first compound 0.08 µM): 0.404 | relative viability ([7]; first compound 0.253 µM): 0.442 | relative viability ([7]; first compound 0.8 µM): 0.434 | relative viability ([7]; first compound 2.53 µM): 0.433 | relative viability ([8]; first compound 0.08 µM): 0.67 | relative viability ([8]; first compound 0.253 µM): 0.668 | relative viability ([8]; first compound 0.8 µM): 0.709 | relative viability ([8]; first compound 2.53 µM): 0.749 | relative viability ([9]; first compound 0.08 µM): 0.219 | relative viability ([9]; first compound 0.253 µM): 0.186 | relative viability ([9]; first compound 0.8 µM): 0.245 | relative viability ([9]; first compound 2.53 µM): 0.299 | relative viability ([10]; first compound 0.08 µM): 0.425 | relative viability ([10]; first compound 0.253 µM): 0.369 | relative viability ([10]; first compound 0.8 µM): 0.309 | relative viability ([10]; first compound 2.53 µM): 0.278 | relative viability ([11]; first compound 0.08 µM): 0.672 | relative viability ([11]; first compound 0.253 µM): 0.578 | relative viability ([11]; first compound 0.8 µM): 0.385 | relative viability ([11]; first compound 2.53 µM): 0.403 | relative viability ([12]; first compound 0.08 µM): 0.811 | relative viability ([12]; first compound 0.253 µM): 0.532 | relative viability ([12]; first compound 0.8 µM): 0.599 | relative viability ([12]; first compound 2.53 µM): 0.636 | relative viability ([13]; first compound 0.08 µM): 0.497 | relative viability ([13]; first compound 0.253 µM): 0.462 | relative viability ([13]; first compound 0.8 µM): 0.511 | relative viability ([13]; first compound 2.53 µM): 0.495 | relative viability ([14]; first compound 0.08 µM): 0.879 | relative viability ([14]; first compound 0.253 µM): 0.751 | relative viability ([14]; first compound 0.8 µM): 0.871 | relative viability ([14]; first compound 2.53 µM): 0.713 | relative viability ([15]; first compound 0.08 µM): 0.229 | relative viability ([15]; first compound 0.253 µM): 0.197 | relative viability ([15]; first compound 0.8 µM): 0.179 | relative viability ([15]; first compound 2.53 µM): 0.223 | relative viability ([16]; first compound 0.08 µM): 0.452 | relative viability ([16]; first compound 0.253 µM): 0.358 | relative viability ([16]; first compound 0.8 µM): 0.339 | relative viability ([16]; first compound 2.53 µM): 0.54 | relative viability ([17]; first compound 0.08 µM): 0.687 | relative viability ([17]; first compound 0.253 µM): 0.395 | relative viability ([17]; first compound 0.8 µM): 0.493 | relative viability ([17]; first compound 2.53 µM): 0.168 | relative viability ([18]; first compound 0.08 µM): 0.543 | relative viability ([18]; first compound 0.253 µM): 0.404 | relative viability ([18]; first compound 0.8 µM): 0.557 | relative viability ([18]; first compound 2.53 µM): 0.454 | relative viability ([19]; first compound 0.08 µM): 0.409 | relative viability ([19]; first compound 0.253 µM): 0.336 | relative viability ([19]; first compound 0.8 µM): 0.317 | relative viability ([19]; first compound 2.53 µM): 0.332 | relative viability ([20]; first compound 0.08 µM): 0.215 | relative viability ([20]; first compound 0.253 µM): 0.223 | relative viability ([20]; first compound 0.8 µM): 0.223 | relative viability ([20]; first compound 2.53 µM): 0.195 | relative viability ([21]; first compound 0.253 µM): 0.374 | relative viability ([21]; first compound 0.8 µM): 0.409 | relative viability ([21]; first compound 2.53 µM): 0.397 | relative viability ([22]; first compound 0.08 µM): 0.322 | relative viability ([22]; first compound 0.253 µM): 0.284 | relative viability ([22]; first compound 0.8 µM): 0.282 | relative viability ([22]; first compound 2.53 µM): 0.231
